Data from ChEMBL document CHEMBL1201862, “PubChem BioAssay data set” (2004).
Activity calls are given as the source filed them.

What was measured:
[1] = target: Glucose-6-phosphate 1-dehydrogenase (Homo sapiens, UniProt P11413); assay: inhibition of Homo sapiens G6PD, dose series – biochemical, fluorescence, selectivity assay for P. falciparum G6PD inhibitor project, dose response (AID 504792); type: functional
[2] = target: 72 kDa type IV collagenase (Homo sapiens, UniProt P08253); assay: Dose Response validation of uHTS RPN11 inhibitor hits using a MMP-2 Fluorescence assay.; type: functional
Chain of 72 kDa type IV collagenase (P08253 whole entry): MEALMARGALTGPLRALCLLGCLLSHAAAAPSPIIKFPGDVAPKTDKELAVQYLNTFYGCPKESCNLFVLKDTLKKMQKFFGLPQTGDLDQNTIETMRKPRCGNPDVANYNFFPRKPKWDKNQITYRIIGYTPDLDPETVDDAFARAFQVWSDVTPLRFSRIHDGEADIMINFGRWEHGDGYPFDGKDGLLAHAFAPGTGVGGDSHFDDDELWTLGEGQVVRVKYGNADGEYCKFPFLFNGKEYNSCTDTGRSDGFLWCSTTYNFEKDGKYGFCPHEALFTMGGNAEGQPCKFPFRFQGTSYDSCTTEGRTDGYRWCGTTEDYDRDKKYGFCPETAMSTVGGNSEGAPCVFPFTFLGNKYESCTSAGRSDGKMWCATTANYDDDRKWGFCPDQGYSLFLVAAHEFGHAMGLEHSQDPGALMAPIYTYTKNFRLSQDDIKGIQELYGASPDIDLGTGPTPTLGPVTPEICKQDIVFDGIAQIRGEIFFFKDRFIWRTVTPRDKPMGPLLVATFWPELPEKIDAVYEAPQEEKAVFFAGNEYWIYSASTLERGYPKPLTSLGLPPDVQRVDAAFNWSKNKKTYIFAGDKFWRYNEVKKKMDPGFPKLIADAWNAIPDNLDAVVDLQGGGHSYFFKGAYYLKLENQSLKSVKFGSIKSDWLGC

[3] = target: 26S proteasome non-ATPase regulatory subunit 14 (Homo sapiens, UniProt O00487); assay: inhibition of proteasome subunit RPN11 – biochemical, fluorescence polarization, uHTS hits, confirmation (AID 602368); type: functional
Chain of 26S proteasome non-ATPase regulatory subunit 14 (O00487 whole entry): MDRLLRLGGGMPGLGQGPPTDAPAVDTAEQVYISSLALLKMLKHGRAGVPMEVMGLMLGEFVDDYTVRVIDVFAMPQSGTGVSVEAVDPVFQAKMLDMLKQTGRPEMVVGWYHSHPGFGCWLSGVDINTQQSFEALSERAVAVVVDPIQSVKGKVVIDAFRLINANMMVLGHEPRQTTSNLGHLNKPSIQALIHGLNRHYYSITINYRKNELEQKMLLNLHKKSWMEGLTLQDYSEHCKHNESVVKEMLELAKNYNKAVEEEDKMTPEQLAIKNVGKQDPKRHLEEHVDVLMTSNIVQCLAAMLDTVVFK

Prothrombin = Prothrombin (Bos taurus, UniProt P00735); assay: thrombin protease inhibitors – biochemical, fluorescence polarization, uHTS hits, dose response (AID 602369); type: functional
[4] = HIV-1 Vif–A3G interaction blockers – biochemical, TR-FRET, GST-Vif 1-94, biotin-A3G peptide, dose response retest, primary screen (AID 1117319); type: functional;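 further: TR-FRET signal of purified GST-Vif binding a biotinylated A3G peptide; inhibitors lower the FRET signal by blocking Vif and A3G binding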
[5] = target: T1, High affinity choline transporter 1 (Homo sapiens, UniProt Q9GZV3); assay: human choline transporter blockers, potency – cell-based, 5-point CRC, membrane potential dye, dose response (AID 504840); type: functional
T1 sequence (Q9GZV3 whole entry): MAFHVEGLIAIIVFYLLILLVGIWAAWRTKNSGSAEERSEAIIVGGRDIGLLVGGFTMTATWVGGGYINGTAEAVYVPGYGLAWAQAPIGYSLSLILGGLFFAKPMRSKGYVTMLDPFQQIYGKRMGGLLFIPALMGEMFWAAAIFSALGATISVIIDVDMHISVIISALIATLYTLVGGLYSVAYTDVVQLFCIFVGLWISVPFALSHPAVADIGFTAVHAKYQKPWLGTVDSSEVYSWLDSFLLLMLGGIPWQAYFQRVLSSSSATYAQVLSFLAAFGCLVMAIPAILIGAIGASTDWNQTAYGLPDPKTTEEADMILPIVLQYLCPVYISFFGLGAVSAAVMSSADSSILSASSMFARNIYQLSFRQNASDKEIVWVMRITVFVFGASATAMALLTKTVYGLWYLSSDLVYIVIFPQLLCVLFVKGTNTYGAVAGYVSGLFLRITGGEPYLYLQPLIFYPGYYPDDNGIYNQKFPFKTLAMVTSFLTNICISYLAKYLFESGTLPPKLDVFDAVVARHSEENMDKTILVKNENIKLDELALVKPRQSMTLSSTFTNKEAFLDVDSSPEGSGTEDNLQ

[6] = target: FAD-linked sulfhydryl oxidase ALR (Homo sapiens, UniProt P55789); assay: ALR-catalysed DTT oxidation blockers – biochemical, H2O2 detection, luminescence, cherry-pick, dose response (AID 493248)
Chain of FAD-linked sulfhydryl oxidase ALR (P55789 whole entry): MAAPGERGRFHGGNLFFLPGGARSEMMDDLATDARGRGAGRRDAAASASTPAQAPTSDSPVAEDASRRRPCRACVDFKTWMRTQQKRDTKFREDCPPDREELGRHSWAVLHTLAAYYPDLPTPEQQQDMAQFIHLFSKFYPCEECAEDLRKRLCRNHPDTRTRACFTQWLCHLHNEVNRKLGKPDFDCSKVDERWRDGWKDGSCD

[7] = microbe, parasite or virus in culture; type: functional; details: Mycobacterium tuberculosis
[8] = viability of HCT116 lacking mutant beta-catenin – cell-based, human colon tumor, dose response (AID 1045); type: functional;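 further: HCT116 colon tumor cells with beta catenin knocked out; cells exposed to compound for 60 hours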
[9] = viability of PTEN-deleted HCT116 cells – cell-based, HCT116 PTEN knockout, dose response (AID 1047); type: functional;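 further: HCT116 colon tumor cells with PTEN knocked out; cells exposed to compound for 60 hours before readout; potency for loss of cell viability measured by luminescence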
[10] = target: T2, Short transient receptor potential channel 4 (Mus musculus, UniProt Q9QUQ5); assay: block of DAMGO-driven TRPC4 calcium entry – cell-based, HEK293 TRPC4/mu-opioid, Fluo-4 calcium, dose response (AID 434942); type: functional;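 further: potency of inhibitors blocking the TRPC4 calcium response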
T2 sequence (Q9QUQ5 whole entry): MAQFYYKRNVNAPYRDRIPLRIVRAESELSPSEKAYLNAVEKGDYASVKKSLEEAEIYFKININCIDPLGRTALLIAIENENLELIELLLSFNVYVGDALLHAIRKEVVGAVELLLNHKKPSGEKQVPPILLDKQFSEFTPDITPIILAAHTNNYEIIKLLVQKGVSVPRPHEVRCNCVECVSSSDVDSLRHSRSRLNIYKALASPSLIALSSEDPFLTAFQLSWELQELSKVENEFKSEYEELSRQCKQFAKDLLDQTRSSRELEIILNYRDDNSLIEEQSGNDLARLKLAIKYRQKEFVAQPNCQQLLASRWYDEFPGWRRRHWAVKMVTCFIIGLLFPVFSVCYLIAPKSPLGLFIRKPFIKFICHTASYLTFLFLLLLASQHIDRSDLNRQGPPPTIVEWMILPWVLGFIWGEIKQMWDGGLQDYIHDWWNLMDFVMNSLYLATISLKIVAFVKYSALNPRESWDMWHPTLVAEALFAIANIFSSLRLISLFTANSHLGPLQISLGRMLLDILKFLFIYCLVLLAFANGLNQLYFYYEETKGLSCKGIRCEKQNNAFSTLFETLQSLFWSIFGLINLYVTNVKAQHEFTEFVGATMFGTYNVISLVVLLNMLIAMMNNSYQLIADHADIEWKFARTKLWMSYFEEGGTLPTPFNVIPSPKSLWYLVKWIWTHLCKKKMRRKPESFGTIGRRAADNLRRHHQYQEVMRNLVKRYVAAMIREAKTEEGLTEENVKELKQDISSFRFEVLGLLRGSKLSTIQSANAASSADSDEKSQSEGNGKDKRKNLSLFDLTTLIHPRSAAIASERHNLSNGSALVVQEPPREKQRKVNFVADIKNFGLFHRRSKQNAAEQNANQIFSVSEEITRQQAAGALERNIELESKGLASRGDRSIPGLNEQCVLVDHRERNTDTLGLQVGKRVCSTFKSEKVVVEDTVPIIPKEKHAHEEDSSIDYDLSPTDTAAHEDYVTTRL

Cytochrome P450 2D6 = Cytochrome P450 2D6 (Homo sapiens, UniProt P10635);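 further: CYP2D6 member of a cytochrome P450 panel assay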
Chain of Cytochrome P450 2D6 (P10635 whole entry): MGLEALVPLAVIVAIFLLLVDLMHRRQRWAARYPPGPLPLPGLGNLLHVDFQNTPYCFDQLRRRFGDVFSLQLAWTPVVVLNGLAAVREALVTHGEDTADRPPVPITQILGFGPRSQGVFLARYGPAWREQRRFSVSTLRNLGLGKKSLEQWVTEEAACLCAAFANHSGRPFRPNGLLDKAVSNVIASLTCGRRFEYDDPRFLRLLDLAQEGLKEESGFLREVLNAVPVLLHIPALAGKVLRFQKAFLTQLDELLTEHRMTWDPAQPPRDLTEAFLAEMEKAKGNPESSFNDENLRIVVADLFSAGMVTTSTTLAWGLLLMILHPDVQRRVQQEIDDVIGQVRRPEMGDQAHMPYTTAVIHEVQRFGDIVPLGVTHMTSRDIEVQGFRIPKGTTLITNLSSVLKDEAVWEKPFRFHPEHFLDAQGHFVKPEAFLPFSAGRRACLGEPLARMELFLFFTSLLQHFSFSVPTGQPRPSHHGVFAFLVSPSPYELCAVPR

Large T antigen = Large T antigen (Simian virus 40, UniProt P03070); type: functional, Betapolyomavirus macacae;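 further: Confirmatory-stage PubChem screen for compounds that inhibit SV40 T antigen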
Chain of Large T antigen (P03070 whole entry): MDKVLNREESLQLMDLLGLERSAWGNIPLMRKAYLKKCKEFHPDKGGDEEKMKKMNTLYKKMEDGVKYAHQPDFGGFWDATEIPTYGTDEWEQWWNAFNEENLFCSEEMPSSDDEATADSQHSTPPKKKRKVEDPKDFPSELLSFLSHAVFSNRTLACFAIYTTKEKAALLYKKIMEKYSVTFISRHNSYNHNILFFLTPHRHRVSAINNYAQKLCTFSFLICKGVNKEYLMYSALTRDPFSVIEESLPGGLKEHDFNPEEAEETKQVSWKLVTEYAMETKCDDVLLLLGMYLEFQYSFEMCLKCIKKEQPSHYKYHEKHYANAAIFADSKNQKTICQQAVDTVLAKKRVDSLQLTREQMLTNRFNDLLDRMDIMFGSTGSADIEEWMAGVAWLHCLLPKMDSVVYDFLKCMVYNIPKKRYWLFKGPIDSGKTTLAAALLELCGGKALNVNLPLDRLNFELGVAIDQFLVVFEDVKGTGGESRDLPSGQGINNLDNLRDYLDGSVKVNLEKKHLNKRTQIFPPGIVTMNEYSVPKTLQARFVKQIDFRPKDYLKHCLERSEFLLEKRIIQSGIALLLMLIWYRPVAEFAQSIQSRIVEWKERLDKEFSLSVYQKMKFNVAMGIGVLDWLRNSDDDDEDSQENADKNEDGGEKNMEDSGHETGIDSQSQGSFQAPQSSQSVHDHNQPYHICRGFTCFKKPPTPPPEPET

[11] = target: T3, Rac GTPase-activating protein 1 (Homo sapiens, UniProt Q9H0H5); assay: blockers of MgcRacGAP-driven Rac1 GTP hydrolysis – biochemical, ADP Hunter fluorescence, primary and confirmatory, confirmation (AID 624330); type: functional
T3 sequence (Q9H0H5 whole entry): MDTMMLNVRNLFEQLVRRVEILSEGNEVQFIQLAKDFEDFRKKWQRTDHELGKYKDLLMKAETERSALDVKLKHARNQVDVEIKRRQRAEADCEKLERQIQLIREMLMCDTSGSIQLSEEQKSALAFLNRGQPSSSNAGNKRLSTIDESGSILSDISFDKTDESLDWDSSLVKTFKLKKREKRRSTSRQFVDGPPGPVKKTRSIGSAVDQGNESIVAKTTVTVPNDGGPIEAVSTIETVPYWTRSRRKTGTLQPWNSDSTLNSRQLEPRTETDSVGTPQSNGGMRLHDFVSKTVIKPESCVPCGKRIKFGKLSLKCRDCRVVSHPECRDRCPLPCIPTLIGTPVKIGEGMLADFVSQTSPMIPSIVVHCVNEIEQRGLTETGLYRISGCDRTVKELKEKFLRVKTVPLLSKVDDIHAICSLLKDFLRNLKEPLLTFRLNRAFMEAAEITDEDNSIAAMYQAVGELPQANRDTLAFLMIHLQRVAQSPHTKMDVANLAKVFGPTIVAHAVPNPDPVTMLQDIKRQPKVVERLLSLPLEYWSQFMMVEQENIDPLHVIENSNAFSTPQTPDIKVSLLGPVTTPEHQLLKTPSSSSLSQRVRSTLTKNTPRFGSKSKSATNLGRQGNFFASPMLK

Genome polyprotein = Genome polyprotein (dengue virus type 2, UniProt P29990); assay: flavivirus cap methylation enzyme inhibition – biochemical, confirmation dose response, primary screen (AID 588689); type: functional
Chain of Genome polyprotein (P29990 2492-3391 limits assumed): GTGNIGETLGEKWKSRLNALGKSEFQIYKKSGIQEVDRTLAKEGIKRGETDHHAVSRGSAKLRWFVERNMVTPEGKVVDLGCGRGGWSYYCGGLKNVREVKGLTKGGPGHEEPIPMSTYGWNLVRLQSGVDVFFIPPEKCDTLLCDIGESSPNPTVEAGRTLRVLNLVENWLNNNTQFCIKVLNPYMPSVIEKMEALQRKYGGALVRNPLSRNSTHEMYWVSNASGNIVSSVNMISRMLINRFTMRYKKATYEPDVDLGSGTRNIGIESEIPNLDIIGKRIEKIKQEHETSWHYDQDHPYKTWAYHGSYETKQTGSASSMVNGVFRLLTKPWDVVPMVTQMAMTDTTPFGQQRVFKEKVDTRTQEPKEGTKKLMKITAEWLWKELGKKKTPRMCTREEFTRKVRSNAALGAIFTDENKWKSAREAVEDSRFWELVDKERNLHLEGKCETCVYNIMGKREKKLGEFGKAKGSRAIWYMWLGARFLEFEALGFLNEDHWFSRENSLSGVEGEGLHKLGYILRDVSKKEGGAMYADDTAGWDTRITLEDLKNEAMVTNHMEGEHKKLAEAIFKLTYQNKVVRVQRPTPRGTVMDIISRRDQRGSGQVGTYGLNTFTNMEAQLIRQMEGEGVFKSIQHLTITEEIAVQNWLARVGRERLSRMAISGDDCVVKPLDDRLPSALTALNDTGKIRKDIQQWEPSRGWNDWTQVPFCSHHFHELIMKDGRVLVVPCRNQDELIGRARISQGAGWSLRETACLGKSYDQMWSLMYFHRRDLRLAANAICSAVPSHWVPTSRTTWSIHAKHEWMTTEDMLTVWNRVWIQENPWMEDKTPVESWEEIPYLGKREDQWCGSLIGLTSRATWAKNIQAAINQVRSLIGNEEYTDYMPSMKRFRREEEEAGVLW

[12] = Luminescence Cell-Based Dose Response HTS to Identify Activators of Luciferase Translation or Activity in H4 […] Cells. [Related pubchem assays: 1829 (Project Summary), 1814 (Primary HTS)]; type: functional
[13] = Luminescence Cell-Based Dose Confirmation HTS to Identify Activators of 5'UTR Stem-Loop Driven Alpha-Synuclein mRNA Translation in H4 Neuroglioblastoma Cells. [Related pubchem assays: 1829 (Project Summary), 1814 (Primary HTS)]; type: functional
HeLa = assay: ATP-based viability loss in HeLa cells – cell-based, CellTiter-Glo luminescence, cherry-pick samples, cytotoxicity control for MITF activator project, dose response (AID 540259); type: functional; details: Homo sapiens
H4 = assay: Luminescence Cell-Based Dose Response HTS to Identify Activators of 5'UTR Stem-Loop Driven Prion Protein mRNA Translation in H4 Neuroglioblastoma Cells. [Related pubchem assays: 1829 (Project Summary), 1814 (Primary HTS)]; type: functional; details: Homo sapiens
Vero = assay: cells; type: functional; details: Chlorocebus sabaeus
[14] = target: T4, DNA repair protein RAD52 homolog (Homo sapiens, UniProt P43351); type: functional, biochemical
T4 sequence (P43351 whole entry): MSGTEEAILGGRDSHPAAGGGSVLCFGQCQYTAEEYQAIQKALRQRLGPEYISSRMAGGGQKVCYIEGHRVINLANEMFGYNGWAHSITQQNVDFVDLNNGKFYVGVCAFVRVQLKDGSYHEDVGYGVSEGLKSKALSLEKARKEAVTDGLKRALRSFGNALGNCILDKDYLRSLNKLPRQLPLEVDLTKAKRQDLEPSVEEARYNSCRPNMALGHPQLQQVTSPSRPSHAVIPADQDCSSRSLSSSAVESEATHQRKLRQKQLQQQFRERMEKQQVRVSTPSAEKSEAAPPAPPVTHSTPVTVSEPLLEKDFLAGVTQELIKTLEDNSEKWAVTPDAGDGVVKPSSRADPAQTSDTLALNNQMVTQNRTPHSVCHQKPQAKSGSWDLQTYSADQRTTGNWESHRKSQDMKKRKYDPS

Chain of Glucose-6-phosphate 1-dehydrogenase (P11413 whole entry): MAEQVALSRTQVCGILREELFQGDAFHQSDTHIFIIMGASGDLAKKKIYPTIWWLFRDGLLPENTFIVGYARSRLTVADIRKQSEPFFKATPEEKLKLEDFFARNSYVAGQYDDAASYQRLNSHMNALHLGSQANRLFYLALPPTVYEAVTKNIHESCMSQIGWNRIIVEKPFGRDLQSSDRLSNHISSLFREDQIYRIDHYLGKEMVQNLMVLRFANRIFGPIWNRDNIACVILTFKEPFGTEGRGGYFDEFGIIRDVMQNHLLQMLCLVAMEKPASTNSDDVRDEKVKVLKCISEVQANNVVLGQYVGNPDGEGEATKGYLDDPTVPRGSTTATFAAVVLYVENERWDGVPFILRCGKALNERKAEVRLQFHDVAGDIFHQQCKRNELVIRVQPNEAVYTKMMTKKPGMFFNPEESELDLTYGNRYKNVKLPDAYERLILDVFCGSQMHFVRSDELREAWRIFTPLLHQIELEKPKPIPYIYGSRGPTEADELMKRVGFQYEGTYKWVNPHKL

CCN1CCN(c2nc(C)nc3c2sc(=S)n3C)CC1
IC50 [1]: > 80 µM (inactive)

CCOc1cc(/C=C2\SC(=S)N(NS(=O)(=O)c3ccc(C)cc3)C2=O)ccc1O
IC50 [2]: 73.8 µM (active)
IC50 [3]: 36.9 µM (active)
IC50 (Prothrombin): 30.4 µM (active)

COc1ccc(C(C(C(=O)c2cccs2)N2CCOCC2)N2CCOCC2)cc1OC (configuration not stated)
IC50 [4]: > 100 µM (active)

O=C(CCCSc1nc2ccccc2s1)NC1=NCCS1
IC50 [5]: 12 µM (active)

Cc1ccc(CSc2nnc(CCNC(=O)OC(C)(C)C)o2)cc1
IC50 [5]: 12.9 µM (active)

COc1ccc(O)c(-c2cc(-c3ccccc3[N+](=O)[O-])[nH]n2)c1
AC50 [6]: 4.33 µM (active)

CCOc1cc(CNCCCN2CCOCC2)cc(Br)c1OCC(=O)Nc1cccc(C(F)(F)F)c1
CC50 [7]: 12.4 µM (active)
EC50 [8]: 7.97 µM (active)
EC50 [9]: 9.96 µM (active)
EC50 [10]: 6.68 µM (active)
AC50 (Cytochrome P450 2D6): 14.1 µM (inconclusive)

Cc1cccc(NC(=O)CSc2nnc(-c3cc(C)n(-c4ccccc4)c3C)o2)c1C
EC50 [10]: 2.11 µM (active)

CCc1ccc(NC(=O)CCc2nc3sc4c(c3c(=O)[nH]2)CCCC4)cc1
IC50 [2]: > 100 µM (inactive)
IC50 [3]: 37.6 µM (active)
IC50 (Prothrombin): 35.9 µM (active)

CC(=O)N1CCN(c2ccc(NCc3cccc4ccccc34)cc2)CC1
AC50 [6]: 1.36 µM (active)
IC50 (Large T antigen): 10.1 µM (active)

N#CCCn1cc(CNCc2ccccc2)c(-c2cccc([N+](=O)[O-])c2)n1
EC50 [10]: 3.76 µM (active)

CCN(CC)c1ccc([C@H]2[C@@H]3CCCC[C@]3(O)CCN2CC(=O)NCc2ccco2)cc1
AC50 [6]: 1.54 µM (active)

Oc1ccc(Br)cc1CN1CCCCCCC1
AC50 [6]: 7.63 µM (active)

CCOC(=O)N1CCN(C(=O)CCCn2c(=O)[nH]c3ccccc3c2=O)CC1
IC50 [5]: 13.2 µM (active)

Cn1c(=O)[nH]c(=O)c2c1nc(S)n2CCCc1ccccc1
IC50 [1]: > 80 µM (inactive)
IC50 [11]: 19.7 µM (active)

O=C(O)c1ccccc1NC(=O)c1cc(-c2ccccc2)nc2ccccc12
AC50 [6]: 0.703 µM (active)

Cc1cc(O)c(C(C)C)cc1N=Cc1ccc([N+](=O)[O-])cc1
IC50 [1]: 44.4 µM (inactive)
IC50 (Genome polyprotein): 90.1 µM (active)

CC(=O)Nc1ccc(NC(=O)c2sc3nc4c(c(-c5ccc(C)cc5)c3c2N)CCC4)cc1
IC50 [4]: > 100 µM (active)

CCOC(=O)C1(CC2CC2)CCN(Cc2cc(Cl)c(O)c(OC)c2)CC1
EC50 [10]: 3.76 µM (active)

COC(=O)CN1C(=O)C(O)=C(C(C)=O)C1c1ccc([N+](=O)[O-])cc1 (configuration not stated)
IC50 [4]: > 100 µM (active)

CC1CCC(NC(=O)c2ccc(NS(=O)(=O)c3ccc4[nH]c(O)nc4c3)cc2)CC1 (configuration not stated)
EC50 [12]: 27.8 µM (active)
EC50 [13]: 23.4 µM (active)
AC50 (HeLa): 53.8 µM (active)
EC50 (H4): 8.97 µM (active)

COc1cc(C=O)ccc1OCc1cccc(Br)c1
AC50 (HeLa): 85.9 µM (active)

O=C(COc1cccc2cccnc12)N/N=C/c1cccn1-c1ccc(F)cc1
CC50 (Vero): > 25 µM (active)

O=C1c2ccccc2S(=O)(=O)c2cc(N3CCOCC3)ccc21
IC50 [2]: > 100 µM (inactive)
IC50 [3]: 10.9 µM (active)
IC50 (Prothrombin): 24 µM (active)

O=C(c1ccc(-n2cnnn2)cc1)N1CCOCC1
IC50 [4]: > 100 µM (active)

COc1ccc(Cn2cnc3c([N+](=O)[O-])c(C)c(C)cc32)cc1
IC50 [5]: 12.3 µM (active)

c1coc(CNc2nc(-c3cccs3)cs2)c1
IC50 [4]: > 100 µM (active)

Cc1c(P(=S)(c2ccccc2)c2ccccc2)[n+]2ccccc2n1C
IC50 [2]: > 100 µM (inactive)
IC50 [3]: 5.42 µM (active)
AC50 [14]: 10.4 µM (active)
IC50 (Prothrombin): 62.8 µM (active)

COc1cc(C(F)(F)F)nc2c(Br)c(C(C)(C)C)nn12
EC50 [10]: 1.5 µM (active)

Cc1cccc(-c2nnc3sc(-c4ccccc4)nn23)c1
AC50 (HeLa): 189 µM (active)

Cc1cccnc1NC(=O)Nc1cccc(Cl)c1
AC50 (HeLa): > 350 µM (inactive)

COc1ccc(-c2cn3cc(C)ccc3n2)cc1Br
IC50 [1]: > 80 µM (inactive)

CCN(CC)C(=O)c1cc2sc3ccccc3c2s1
AC50 (HeLa): 46.9 µM (active)
